Results taken from paper PMC5218480 (PLoS ONE, 2017).

System: MV-4-11 cells
Test: Gene expression microarray analysis (Affymetrix PrimeView) and GSEA
Format: cell-based, human
Design: RFU PODN (11730768_x_at) / Fold change /veh PODN (11730768_x_at) / RFU LINC00158 (11744669_a_at) / Fold change /veh LINC00158 (11744669_a_at) / RFU DUSP10 (11751237_a_at) / Fold change /veh DUSP10 (11751237_a_at) / RFU ID3 (11757404_x_at) / Fold change /veh ID3 (11757404_x_at) / RFU PLEKHG5 (11737974_s_at) / Fold change /veh PLEKHG5 (11737974_s_at) / RFU LRRC4B (11730491_at) / Fold change /veh LRRC4B (11730491_at) / RFU GIMAP4 (11747438_a_at) / Fold change /veh GIMAP4 (11747438_a_at) / RFU KRT8 (11758183_x_at) / Fold change /veh KRT8 (11758183_x_at) / RFU CNN1 (11734310_a_at) / Fold change /veh CNN1 (11734310_a_at) / RFU VPS37D (11726825_at) / Fold change /veh VPS37D (11726825_at) / RFU C10orf10 (11716522_x_at) / Fold change /veh C10orf10 (11716522_x_at) / RFU KIR2DL2 /// KIR2DL4 /// KIR2DL5A /// KIR2DL5B /// KIR2DS1 /// KIR2DS2 /// KIR2DS3 /// KIR2DS4 /// KIR3DL3 /// KIR3DL3 /// KIR3DS1 (11738374_at) / Fold change /veh KIR2DL2 /// KIR2DL4 /// KIR2DL5A /// KIR2DL5B /// KIR2DS1 /// KIR2DS2 /// KIR2DS3 /// KIR2DS4 /// KIR3DL3 /// KIR3DL3 /// KIR3DS1 (11738374_at) / RFU C1QL1 (11718748_at) / Fold change /veh C1QL1 (11718748_at) / RFU TMPRSS4 (11747572_a_at) / Fold change /veh TMPRSS4 (11747572_a_at) / RFU HAMP (11756126_x_at) / Fold change /veh HAMP (11756126_x_at) / RFU RNFT2 (11725882_a_at) / Fold change /veh RNFT2 (11725882_a_at) / RFU NR4A2 (11747474_a_at) / Fold change /veh NR4A2 (11747474_a_at) / RFU ABCC12 (11746883_a_at) / Fold change /veh ABCC12 (11746883_a_at) / RFU TMEM136 (11760407_x_at) / Fold change /veh TMEM136 (11760407_x_at) / RFU CLDN22 /// WWC2 (11732394_at) / Fold change /veh CLDN22 /// WWC2 (11732394_at) / RFU HLA-DPB1 (11760878_x_at) / Fold change /veh HLA-DPB1 (11760878_x_at) / RFU SPINT1 (11716480_a_at) / Fold change /veh SPINT1 (11716480_a_at) / RFU GAP43 (11754022_s_at) / Fold change /veh GAP43 (11754022_s_at) / RFU A4GNT (11735810_at) / Fold change /veh A4GNT (11735810_at) / RFU PRB3 (11715151_x_at) / Fold change /veh PRB3 (11715151_x_at) / RFU TUBB4B (11761932_at) / Fold change /veh TUBB4B (11761932_at) / RFU CAPN14 (11732068_a_at) / Fold change /veh CAPN14 (11732068_a_at) / RFU TMCC2 (11721928_a_at) / Fold change /veh TMCC2 (11721928_a_at) / RFU IRGQ (11745062_a_at) / Fold change /veh IRGQ (11745062_a_at) / RFU FAM174B (11720279_a_at) / Fold change /veh FAM174B (11720279_a_at) / RFU TMPRSS4 (11748680_a_at) / Fold change /veh TMPRSS4 (11748680_a_at) / RFU FAM212B (11763350_a_at) / Fold change /veh FAM212B (11763350_a_at) / RFU PLEKHG5 (11743358_a_at) / Fold change /veh PLEKHG5 (11743358_a_at) / RFU ZSCAN30 (11745921_a_at) / Fold change /veh ZSCAN30 (11745921_a_at) / RFU CMKLR1 (11741424_a_at) / Fold change /veh CMKLR1 (11741424_a_at) / RFU LOC101060620 /// MAPK8IP1 (11723275_at) / Fold change /veh LOC101060620 /// MAPK8IP1 (11723275_at) / RFU SPTSSB (11747773_x_at) / Fold change /veh SPTSSB (11747773_x_at) / RFU PRSS12 (11739890_at) / Fold change /veh PRSS12 (11739890_at) / RFU BIN1 (11741810_x_at) / Fold change /veh BIN1 (11741810_x_at) / RFU WNT11 (11732464_a_at) / Fold change /veh WNT11 (11732464_a_at) / RFU C10orf10 (11716521_a_at) / Fold change /veh C10orf10 (11716521_a_at) / RFU C5orf56 (11738089_at) / Fold change /veh C5orf56 (11738089_at) / RFU CYB561 (11721691_x_at) / Fold change /veh CYB561 (11721691_x_at) / RFU ANKRD19P (11752326_a_at) / Fold change /veh ANKRD19P (11752326_a_at) / RFU OR2T12 /// OR2T33 /// OR2T8 (11738714_s_at) / Fold change /veh OR2T12 /// OR2T33 /// OR2T8 (11738714_s_at) / RFU VCAN (11748164_a_at) / Fold change /veh VCAN (11748164_a_at) / RFU JSRP1 (11732532_at) / Fold change /veh JSRP1 (11732532_at) / RFU KRTAP10-11 (11738290_x_at) / Fold change /veh KRTAP10-11 (11738290_x_at) / RFU MYO3A (11730013_a_at) / Fold change /veh MYO3A (11730013_a_at) / RFU EBF3 (11725865_a_at) / Fold change /veh EBF3 (11725865_a_at) / RFU CAMK2N1 (11719241_x_at) / Fold change /veh CAMK2N1 (11719241_x_at) / RFU C5orf56 (11738088_a_at) / Fold change /veh C5orf56 (11738088_a_at) / RFU OLFML3 (11715873_a_at) / Fold change /veh OLFML3 (11715873_a_at) / RFU LOC100653217 /// NTM (11731650_a_at) / Fold change /veh LOC100653217 /// NTM (11731650_a_at) / RFU MAPK11 (11762145_a_at) / Fold change /veh MAPK11 (11762145_a_at) / RFU FIZ1 (11724087_x_at) / Fold change /veh FIZ1 (11724087_x_at) / RFU OASL (11726364_x_at) / Fold change /veh OASL (11726364_x_at) / RFU SOX15 (11748057_x_at) / Fold change /veh SOX15 (11748057_x_at) / RFU CD79A (11719716_a_at) / Fold change /veh CD79A (11719716_a_at) / RFU HIST1H1D (11736915_at) / Fold change /veh HIST1H1D (11736915_at) / RFU CASKIN2 (11723855_a_at) / Fold change /veh CASKIN2 (11723855_a_at) / RFU LOC730098 (11760151_x_at) / Fold change /veh LOC730098 (11760151_x_at) / RFU OR4N2 (11742367_at) / Fold change /veh OR4N2 (11742367_at) / RFU PRRT2 (11749266_a_at) / Fold change /veh PRRT2 (11749266_a_at) / RFU SNX32 (11753110_a_at) / Fold change /veh SNX32 (11753110_a_at) / RFU CDHR5 (11726645_a_at) / Fold change /veh CDHR5 (11726645_a_at) / RFU RCAN1 (11760418_a_at) / Fold change /veh RCAN1 (11760418_a_at) / RFU FAM167A (11723789_a_at) / Fold change /veh FAM167A (11723789_a_at) / RFU FAM26E (11764081_at) / Fold change /veh FAM26E (11764081_at) / RFU ISYNA1 (11749810_s_at) / Fold change /veh ISYNA1 (11749810_s_at) / RFU ACY1 (11761880_at) / Fold change /veh ACY1 (11761880_at) / RFU 11764098_at / Fold change /veh 11764098_at / RFU SAMD14 (11745864_x_at) / Fold change /veh SAMD14 (11745864_x_at) / RFU NPB (11741838_a_at) / Fold change /veh NPB (11741838_a_at) / RFU TMPRSS6 (11731388_a_at) / Fold change /veh TMPRSS6 (11731388_a_at) / RFU KRTAP10-2 (11738614_at) / Fold change /veh KRTAP10-2 (11738614_at) / RFU ARHGAP8 /// PRR5-ARHGAP8 (11727945_x_at) / Fold change /veh ARHGAP8 /// PRR5-ARHGAP8 (11727945_x_at) / RFU KRTAP5-7 /// NADSYN1 (11734609_at) / Fold change /veh KRTAP5-7 /// NADSYN1 (11734609_at) / RFU RASL12 (11751679_a_at) / Fold change /veh RASL12 (11751679_a_at) / RFU CDKN2B (11736163_a_at) / Fold change /veh CDKN2B (11736163_a_at) / RFU PRF1 (11729649_at) / Fold change /veh PRF1 (11729649_at) / RFU, ZNF638 /// ZNF638-IT1 / Fold change vs veh, ZNF638 /// ZNF638-IT1 / RFU, PANK3 / Fold change vs veh, PANK3 / RFU, SH3YL1 / Fold change vs veh, SH3YL1 / RFU, ZEB2 / Fold change vs veh, ZEB2 / RFU, NRIP1 / Fold change vs veh, NRIP1 / RFU, PTTG1IP / Fold change vs veh, PTTG1IP / RFU, CAPN2 / Fold change vs veh, CAPN2 / RFU, MED14 / Fold change vs veh, MED14 / RFU, SNORA58 / Fold change vs veh, SNORA58 / RFU, C1orf63 / Fold change vs veh, C1orf63 / RFU, LRRFIP1 / Fold change vs veh, LRRFIP1 / RFU, NDUFAF7 / Fold change vs veh, NDUFAF7 / RFU, SLC12A2 / Fold change vs veh, SLC12A2 / RFU, IBTK / Fold change vs veh, IBTK / RFU, ESF1 / Fold change vs veh, ESF1 / Fold change vs veh, TMEM50B / RFU, TAOK1 / Fold change vs veh, TAOK1 / RFU, ACBD3 / Fold change vs veh, ACBD3 / RFU, TMA16 / Fold change vs veh, TMA16 / RFU, RWDD3 / Fold change vs veh, RWDD3 / RFU, BCAT1 / Fold change vs veh, BCAT1 / RFU, EDEM3 / Fold change vs veh, EDEM3 / RFU, TMEM33 / Fold change vs veh, TMEM33 / RFU, WDR75 / Fold change vs veh, WDR75 / RFU, AHCTF1 / Fold change vs veh, AHCTF1 / RFU, TFRC / Fold change vs veh, TFRC / RFU, ZDHHC17 / Fold change vs veh, ZDHHC17 / RFU, NOM1 / Fold change vs veh, NOM1 / RFU, ARL8B / Fold change vs veh, ARL8B / RFU, ZBTB11 / Fold change vs veh, ZBTB11 / RFU, TAMM41 / Fold change vs veh, TAMM41 / RFU, KIAA1704 /// LOC100996395 / Fold change vs veh, KIAA1704 /// LOC100996395 / RFU, ING1 / Fold change vs veh, ING1 / RFU, TRMT61B / Fold change vs veh, TRMT61B / RFU, FUBP3 / Fold change vs veh, FUBP3 / RFU, TP53 / Fold change vs veh, TP53 / RFU, TNKS2 / Fold change vs veh, TNKS2 / RFU, ZFP14 / Fold change vs veh, ZFP14 / RFU, ACTR2 / Fold change vs veh, ACTR2 / RFU, PPP3R1 / Fold change vs veh, PPP3R1 / RFU, PIK3R1 / Fold change vs veh, PIK3R1 / RFU, HNRNPA1 / Fold change vs veh, HNRNPA1 / RFU, RNF170 / Fold change vs veh, RNF170 / RFU, ZNF28 / Fold change vs veh, ZNF28 / RFU, RNGTT / Fold change vs veh, RNGTT / RFU, OGT / Fold change vs veh, OGT / RFU, BRD1 / Fold change vs veh, BRD1 / RFU, MARS / Fold change vs veh, MARS / RFU, ZNF655 / Fold change vs veh, ZNF655 / RFU, FAHD1 / Fold change vs veh, FAHD1 / RFU, BDP1 / Fold change vs veh, BDP1 / RFU, LRRCC1 / Fold change vs veh, LRRCC1 / RFU, ARID1A / Fold change vs veh, ARID1A / RFU, ZNF146 / Fold change vs veh, ZNF146 / RFU, ZNF330 / Fold change vs veh, ZNF330 / RFU, GPN3 / Fold change vs veh, GPN3 / RFU, C9orf123 / Fold change vs veh, C9orf123 / RFU, N4BP2L2 / Fold change vs veh, N4BP2L2 / RFU, ARFIP1 / Fold change vs veh, ARFIP1 / RFU, FAM179B / Fold change vs veh, FAM179B / RFU, BCL10 / Fold change vs veh, BCL10 / RFU, UHRF1BP1L / Fold change vs veh, UHRF1BP1L / RFU, BET1 / Fold change vs veh, BET1 / RFU, CNOT2 / Fold change vs veh, CNOT2 / RFU, ZNF268 / Fold change vs veh, ZNF268 / Fold change vs veh, ZNF507 / RFU, DGCR2 / Fold change vs veh, DGCR2 / RFU, WDSUB1 / Fold change vs veh, WDSUB1 / Fold change vs veh, HSP90B1 /// MIR3652 / RFU, ADSS / Fold change vs veh, ADSS / RFU, GK / Fold change vs veh, GK / RFU, ZNF148 / Fold change vs veh, ZNF148 / RFU, TAF9 / Fold change vs veh, TAF9 / RFU, SLC1A5 / Fold change vs veh, SLC1A5 / RFU, SLMO2 / Fold change vs veh, SLMO2 / RFU, ABCC4 / Fold change vs veh, ABCC4 / RFU, LOC101060439 /// RAP1B / Fold change vs veh, LOC101060439 /// RAP1B / RFU, RFX7 / Fold change vs veh, RFX7 / RFU, GTPBP10 / Fold change vs veh, GTPBP10 / RFU, CNEP1R1 / Fold change vs veh, CNEP1R1 / RFU, BIVM-ERCC5 /// ERCC5 / Fold change vs veh, BIVM-ERCC5 /// ERCC5 / RFU, ILF3 / Fold change vs veh, ILF3 / RFU 11762660_at / Fold change /veh 11762660_at / RFU VCAN (11757783_s_at) / Fold change /veh VCAN (11757783_s_at) / RFU DDX43 (11728927_at) / Fold change /veh DDX43 (11728927_at) / RFU KRT8 (11758188_x_at) / Fold change /veh KRT8 (11758188_x_at) / RFU NKD1 (11759106_at) / Fold change /veh NKD1 (11759106_at) / RFU SRD5A1 (11742802_a_at) / Fold change /veh SRD5A1 (11742802_a_at) / RFU TPSAB1 /// TPSB2 (11721975_s_at) / Fold change /veh TPSAB1 /// TPSB2 (11721975_s_at) / RFU GSTM3 (11746129_a_at) / Fold change /veh GSTM3 (11746129_a_at) / RFU IL23R (11737362_x_at) / Fold change /veh IL23R (11737362_x_at) / RFU TMEM51 (11727254_a_at) / Fold change /veh TMEM51 (11727254_a_at) / RFU PIWIL2 (11732686_x_at) / Fold change /veh PIWIL2 (11732686_x_at) / RFU ORM1 (11744905_x_at) / Fold change /veh ORM1 (11744905_x_at) / RFU CCDC152 (11743942_at) / Fold change /veh CCDC152 (11743942_at) / RFU ECM1 (11717891_a_at) / Fold change /veh ECM1 (11717891_a_at) / RFU IL23R (11748794_a_at) / Fold change /veh IL23R (11748794_a_at) / RFU TNFAIP8L3 (11732012_x_at) / Fold change /veh TNFAIP8L3 (11732012_x_at) / RFU MBOAT4 (11741988_at) / Fold change /veh MBOAT4 (11741988_at) / RFU 11764193_at / Fold change /veh 11764193_at / RFU TMEM53 (11763286_at) / Fold change /veh TMEM53 (11763286_at) / RFU MAGEB2 (11727129_at) / Fold change /veh MAGEB2 (11727129_at) / RFU TMEM200A (11744735_a_at) / Fold change /veh TMEM200A (11744735_a_at) / RFU CCDC152 (11751479_a_at) / Fold change /veh CCDC152 (11751479_a_at) / RFU FAM211A (11726209_a_at) / Fold change /veh FAM211A (11726209_a_at) / RFU RGS16 (11746705_a_at) / Fold change /veh RGS16 (11746705_a_at) / RFU VCAN (11755009_s_at) / Fold change /veh VCAN (11755009_s_at) / RFU RHOB (11743442_s_at) / Fold change /veh RHOB (11743442_s_at) / RFU RGS16 (11720943_a_at) / Fold change /veh RGS16 (11720943_a_at) / RFU RGS16 (11720944_at) / Fold change /veh RGS16 (11720944_at) / RFU, VPS4B / Fold change vs veh, VPS4B / RFU, CREB1 / Fold change vs veh, CREB1 / RFU, DNAJC13 / Fold change vs veh, DNAJC13 / RFU, GNAQ / Fold change vs veh, GNAQ / RFU, CDK5R1 / Fold change vs veh, CDK5R1 / RFU, ZRANB3 / Fold change vs veh, ZRANB3 / RFU, CUL4A / Fold change vs veh, CUL4A / RFU, CCNY / Fold change vs veh, CCNY / RFU, UFL1 / Fold change vs veh, UFL1 / RFU, COG3 / Fold change vs veh, COG3 / RFU, DIAPH2 / Fold change vs veh, DIAPH2 / RFU, SKA2 / Fold change vs veh, SKA2 / RFU, AFF3 / Fold change vs veh, AFF3 / RFU, LMF1 / Fold change vs veh, LMF1 / RFU, IPO11 / Fold change vs veh, IPO11 / RFU, DFFB / Fold change vs veh, DFFB / RFU, FOXP1 / Fold change vs veh, FOXP1 / RFU, CARD8 / Fold change vs veh, CARD8 / RFU, STRN3 / Fold change vs veh, STRN3 / RFU, ADK / Fold change vs veh, ADK / RFU, RASSF2 / Fold change vs veh, RASSF2 / RFU, WIPF1 / Fold change vs veh, WIPF1 / RFU, LARP1B / Fold change vs veh, LARP1B / RFU, RASA1 / Fold change vs veh, RASA1 / RFU, RB1 / Fold change vs veh, RB1 / RFU, PPFIA1 / Fold change vs veh, PPFIA1 / RFU, MAT2A / Fold change vs veh, MAT2A / RFU, CCT5 / Fold change vs veh, CCT5 / RFU, WDR92 / Fold change vs veh, WDR92 / RFU, CUX1 / Fold change vs veh, CUX1 / RFU, TTC7A / Fold change vs veh, TTC7A / RFU, TMEM135 / Fold change vs veh, TMEM135 / RFU, DEPTOR / Fold change vs veh, DEPTOR / RFU, CPM / Fold change vs veh, CPM / RFU, DNAJB6 / Fold change vs veh, DNAJB6 / RFU, CACNA2D3 / Fold change vs veh, CACNA2D3 / RFU, DTX4 / Fold change vs veh, DTX4 / RFU, TFCP2 / Fold change vs veh, TFCP2 / RFU, GMCL1 /// GMCL1P1 / Fold change vs veh, GMCL1 /// GMCL1P1 / RFU, AEBP2 / Fold change vs veh, AEBP2 / RFU, SNHG1 /// SNORD22 /// SNORD25 /// SNORD26 /// SNORD27 /// SNORD28 /// SNORD29 /// SNORD31 / Fold change vs veh, SNHG1 /// SNORD22 /// SNORD25 /// SNORD26 /// SNORD27 /// SNORD28 /// SNORD29 /// SNORD31 / Fold change (Aza/veh), C12orf56 (ProbeSet 11735607_a_at) / Fold change (ACY-1035/veh), C12orf56 (ProbeSet 11735607_a_at) / Fold change (Aza/veh), FGFR1OP (ProbeSet 11751329_s_at) / Fold change (ACY-1035/veh), FGFR1OP (ProbeSet 11751329_s_at) / Fold change (Aza/veh), VPS36 (ProbeSet 11739960_a_at) / Fold change (ACY-1035/veh), VPS36 (ProbeSet 11739960_a_at) / RFU SYPL1 (11715823_x_at) / Fold change /veh SYPL1 (11715823_x_at) / RFU IGFBP7 (11715501_s_at) / Fold change /veh IGFBP7 (11715501_s_at) / RFU REEP3 (11722064_at) / Fold change /veh REEP3 (11722064_at) / RFU IGLL1 (11728026_x_at) / Fold change /veh IGLL1 (11728026_x_at): dose or concentration left out as unconfirmed
Conditions: MV-4-11 cells, 48 hours

**Q.** For Nc1ncn([C@@H]2O[C@H](CO)[C@@H](O)[C@H]2O)c(=O)n1 [azacitidine], which “Fold change /veh FAM167A (11723789_a_at)” value is on record?
**A.** 1.19
